{"source": "patent US20250345309A1", "about": "“IMMUNE HEALTH IMPROVERS” (Amazentis SA, priority 2024, published 2025)", "key": {"PBMCs": {"system": "PBMCs", "experiment": "Spectral flow cytometry immune phenotyping of PBMCs", "format": "in vivo, human", "method": "Spectral flow cytometry to broadly analyse immune composition was performed on PBMCs from 25 UA and 25 placebo individuals from the cohort. Flow cytometry staining was performed in three batches, to minimize batch-related effects.\nPBMC were thawed and allowed to recover for 3 hours in uncoated cell culture dishes. All samples for any particular donor series were thawed together. For the intracellular panel, cells were stained after recovery with the surface panel, then fixed and permeabilized using the ThermoFisher Foxp3 fix/perm system, followed by staining for intracellular markers. For the surface-only panel, cells were treated with Bafilomycin A1 (0.5 μM) for 45 minutes, followed by 45 minutes incubation with 5-dodecanoylaminofluorescein di-β-D-galactopyranoside (C12FDG) before harvest and surface staining. All cells were analyzed on a Cytek Aurora cytometer. FCS files were exported into FlowJo (BD) for further analysis.\nRaw data for all 64 output channels were unmixed using library single-color reference controls for each marker. Spectral compensation for the resulting unmixed data was corrected by manually adjusting a 31×31 matrix of spectral overlaps. Once the data was properly compensated, each individual marker was checked for signal and specificity. The resulting data was then manually gated using a representative sample. The gates are then applied to the other samples in the batch, while spot-checking the gating of the other samples for consistency with the first sample gated."}, "[1]": {"experiment": "Laboratory chemistry / biochemical safety analysis", "format": "in vivo, human", "method": "During the baseline and follow-up visits, blood was drawn by a physician or physician's assistant to assess blood biochemistry parameters and haematology. Analysis was performed using clinically validated systems at the University Hospital Frankfurt, Germany."}, "DNA methylation": {"system": "DNA methylation", "experiment": "DNA methylation biological age clocks (TruDiagnostic)", "format": "in vivo, human", "conditions": "d28 vs start of intervention, 1000 mg/day oral; no decrease with placebo", "description": "Blood taken from the participants at baseline and the last study visit (d28) time points were applied to dried blood cards and processed by TruDiagnostic™. The test uses DNA methylation data analysis to calculate biological ages using the PhenoAge 2nd generation clock and the Hannum 1st generation clock. The Urolithin A intervention group's biological (immune cell-blood based) age was reduced by a median of about 2 years from the start of the intervention, as calculated by the PhenoAge clock (FIG. 11A). […] A decrease in biological age was not observed in the Placebo group."}, "[2]": {"experiment": "Clinical trial adverse event reporting", "conditions": "Group A n = 25; 1000 mg/day oral, 28 days"}, "monocytes": {"system": "monocytes", "experiment": "Phagocytosis assay (pHrodo E. coli Red BioParticles)", "format": "in vivo, human", "conditions": "ex vivo, d28, 1000 mg/day oral, compared with placebo cohort", "method": "The pHrodo™ E. coli Red BioParticles® Phagocytosis Kit for Flow Cytometry (Invitrogen) was used to assess phagocytotic capacity of monocytes. The particles were inactivated, unopsonized Escherichia coli (K-12 strain) that enables measurement of phagocytic activity based on acidification of particles as they are ingested. Thawed PBMCs were immediately used for analysis. 25 μL of E. coli Red BioParticles® were added to 0.25×10^6 PBMCs in 225 μl PBMC medium. As a negative control, 20 μL of PBS were added to 225 μl of PBMCs. Incubation was performed at 37° C. for 45 min, followed by immediate transfer on ice. Cells were then washed in FACS buffer, centrifuged at 1500 rpm for 5 min, followed by another wash step. Cells were stained for 10 min at 4° C. After washing, cells were reconstituted in PBS and subjected to analysis using a Cytek Aurora fow cytometer. Monocytes were identified as CD3−, CD16+ cells."}, "[3]": {"conditions": "28 days, 1000 mg/day oral, vs placebo"}, "[4]": {"conditions": "d28, 1000 mg/day oral, between the two groups"}, "[5]": {"conditions": "d28, 1000 mg/day oral, not present after placebo"}}}
{"smiles": "O=c1oc2cc(O)ccc2c2ccc(O)cc12", "note": "[Urolithin A]", "values": [{"measurement": "CD8+ TEMRA", "setting": "PBMCs; 28 days, 1000 mg/day oral", "value": "remained unaffected"}, {"measurement": "CD8+ central memory cells (TCM)", "setting": "PBMCs; 28 days, 1000 mg/day oral", "value": "remained unaffected"}, {"measurement": "CD8+ virtual memory cells (TVM)", "setting": "PBMCs; 28 days, 1000 mg/day oral", "value": "remained unaffected"}, {"measurement": "CD8+ TSCM", "setting": "PBMCs; 28 days, 1000 mg/day oral, UA vs placebo group", "value": "no differences"}, {"measurement": "Proportion of naïve CD8+ T cells (TN) among total PBMCs", "setting": "PBMCs; 28 days, 1000 mg/day oral, compared to placebo", "value": "increased"}, {"measurement": "CD8+ effector memory cells (TEM)", "setting": "PBMCs; [3]", "value": "concomitantly reduced"}, {"measurement": "Percentage of CD4+ T cells among total PBMCs", "setting": "PBMCs; [3]", "value": "no differences"}, {"measurement": "Percentage of CD8+ T cells among total PBMCs", "setting": "PBMCs; [3]", "value": "no differences"}, {"measurement": "Percentage of circulating γδ T cells among total PBMCs", "setting": "PBMCs; [3]", "value": "no differences"}, {"measurement": "Percentage of total αβCD3+ T cells among total PBMCs", "setting": "PBMCs; [3]", "value": "no differences"}, {"measurement": "Nonclassical monocytes (CD14loCD16hi) among total PBMCs", "setting": "PBMCs; after 28 days, 1000 mg/day oral, compared to placebo", "value": "increased"}, {"measurement": "Ki67 in CD8+ cells", "setting": "PBMCs; after last study visit (d28), 1000 mg/day oral, not present after placebo", "value": "more"}, {"measurement": "CD4+ TCM population", "setting": "PBMCs; d28, 1000 mg/day oral", "value": "no difference"}, {"measurement": "CD4+ TEM population", "setting": "PBMCs; d28, 1000 mg/day oral", "value": "no difference"}, {"measurement": "CD4+ TN population", "setting": "PBMCs; d28, 1000 mg/day oral", "value": "no difference"}, {"measurement": "CD4+ TSCM population", "setting": "PBMCs; d28, 1000 mg/day oral", "value": "no difference"}, {"measurement": "CD4+ Th1 cells (T-bet)", "setting": "PBMCs; d28, 1000 mg/day oral", "value": "no changes"}, {"measurement": "CD56dimCD16bright NK cells among total PBMCs", "setting": "PBMCs; d28, 1000 mg/day oral", "value": "markedly expanded"}, {"measurement": "Circulating DCs", "setting": "PBMCs; d28, 1000 mg/day oral", "value": "did not change"}, {"measurement": "Circulating ILCs", "setting": "PBMCs; d28, 1000 mg/day oral", "value": "did not change"}, {"measurement": "Circulating T follicular helper cells (Tfh1, Bcl-6)", "setting": "PBMCs; d28, 1000 mg/day oral", "value": "no changes"}, {"measurement": "FoxP3+ Treg", "setting": "PBMCs; d28, 1000 mg/day oral", "value": "no changes"}, {"measurement": "Gata3+ Th2 cells", "setting": "PBMCs; d28, 1000 mg/day oral", "value": "no changes"}, {"measurement": "NK cell inhibitory receptor KIR expression", "setting": "PBMCs; d28, 1000 mg/day oral", "value": "No change"}, {"measurement": "NK cell inhibitory receptor KLRG1 expression", "setting": "PBMCs; d28, 1000 mg/day oral", "value": "No change"}, {"measurement": "NK cell inhibitory receptor NKG2A expression", "setting": "PBMCs; d28, 1000 mg/day oral", "value": "No change"}, {"measurement": "PD-1 expression in CD8+ cells", "setting": "PBMCs; d28, 1000 mg/day oral", "value": "unaltered"}, {"measurement": "Senescence marker p16", "setting": "PBMCs; d28, 1000 mg/day oral", "value": "no difference"}, {"measurement": "Senescence marker p21", "setting": "PBMCs; d28, 1000 mg/day oral", "value": "no difference"}, {"measurement": "Classical monocytes", "setting": "PBMCs; [4]", "value": "did not undergo change"}, {"measurement": "Intermediate monocytes (CD14hiCD16hi)", "setting": "PBMCs; [4]", "value": "did not undergo change"}, {"measurement": "Percentage of plasma cells among PBMCs", "setting": "PBMCs; [4]", "value": "no changes"}, {"measurement": "Percentage of plasmablasts among PBMCs", "setting": "PBMCs; [4]", "value": "no changes"}, {"measurement": "Percentage of total B cells among PBMCs", "setting": "PBMCs; [4]", "value": "no changes"}, {"measurement": "Specific B cell subsets", "setting": "PBMCs; [4]", "value": "no changes"}, {"measurement": "Senescence-associated β-galactosidase (SA-β-GAL) in circulating CD8+ cells", "setting": "PBMCs; [5]", "value": "increased"}, {"measurement": "TOX expression in CD8+ cells", "setting": "PBMCs; [5]", "value": "small reduction"}, {"measurement": "HLA-DR on classical monocytes", "setting": "PBMCs; final study visit (d28), 1000 mg/day oral", "value": "less"}, {"measurement": "Bilirubin (mean ± SD)", "setting": "[1]; Group A d 28, 1000 mg/day oral, d 0 0.53 ± 0.31, p 0.28 n.s.", "value": "0.49 ± 0.26", "unit": "mg/dL"}, {"measurement": "Creatinine (mean ± SD)", "setting": "[1]; Group A d 28, 1000 mg/day oral, d 0 0.82 ± 0.13, p 0.80 n.s.", "value": "0.81 ± 0.11", "unit": "mg/dL"}, {"measurement": "Albumin (mean ± SD)", "setting": "[1]; Group A d 28, 1000 mg/day oral, d 0 4.54 ± 0.24, p 0.85 n.s.", "value": "4.55 ± 0.24", "unit": "g/dL"}, {"measurement": "Uric acid (mean ± SD)", "setting": "[1]; Group A d 28, 1000 mg/day oral, d 0 4.86 ± 1.43, p 0.25 n.s.", "value": "5.04 ± 1.79", "unit": "mg/dL"}, {"measurement": "Total Serum Protein (mean ± SD)", "setting": "[1]; Group A d 28, 1000 mg/day oral, d 0 7.02 ± 0.38, p 0.59 n.s.", "value": "7.06 ± 0.35", "unit": "g/dL"}, {"measurement": "gGT (mean ± SD)", "setting": "[1]; Group A d 28, 1000 mg/day oral, d 0 24.60 ± 15.90, p 0.07 n.s.", "value": "27.13 ± 19.19", "unit": "U/I"}, {"measurement": "AST (mean ± SD)", "setting": "[1]; Group A d 28, 1000 mg/day oral, d 0 27.26 ± 11.56, p 0.76 n.s.", "value": "28.04 ± 16.10", "unit": "U/I"}, {"measurement": "ALT (mean ± SD)", "setting": "[1]; Group A d 28, 1000 mg/day oral, d 0 28.00 ± 24.02, p 0.38 n.s.", "value": "29.44 ± 30.27", "unit": "U/I"}, {"measurement": "HDL cholesterol (mean ± SD)", "setting": "[1]; Group A d 28, 1000 mg/day oral, d 0 66.06 ± 13.51, p 0.06 n.s.", "value": "62.98 ± 17.58", "unit": "mg/dL"}, {"measurement": "AP (mean ± SD)", "setting": "[1]; Group A d 28, 1000 mg/day oral, d 0 75.40 ± 20.60, p 0.15 n.s.", "value": "73.28 ± 19.22", "unit": "U/I"}, {"measurement": "LDL cholesterol (mean ± SD)", "setting": "[1]; Group A d 28, 1000 mg/day oral, d 0 136.6 ± 33.95, p 0.89 n.s.", "value": "136.2 ± 30.56", "unit": "mg/dL"}, {"measurement": "Triglycerides (mean ± SD)", "setting": "[1]; Group A d 28, 1000 mg/day oral, d 0 154.0 ± 98.53, p 0.53 n.s.", "value": "143.2 ± 70.34", "unit": "mg/dL"}, {"measurement": "Total Cholesterol (mean ± SD)", "setting": "[1]; Group A d 28, 1000 mg/day oral, d 0 212.5 ± 33.60, p 0.89 n.s.", "value": "213.0 ± 33.48", "unit": "mg/dL"}, {"measurement": "Changes in metabolic markers, kidney function parameters and liver enzymes", "setting": "[1]; after the 28-day intervention period, 1000 mg/day oral", "value": "No significant changes"}, {"measurement": "Reduction of biological (immune cell-blood based) age, PhenoAge clock, median", "setting": "DNA methylation", "value": "about 2 years"}, {"measurement": "Post-emergent AEs: Infections and Infestations, Covid-19", "setting": "[2]", "value": "1 (4%) n (%)"}, {"measurement": "Monocyte phagocytosis of E. coli particles", "setting": "monocytes", "value": "significantly enhanced"}]}
